Test system: 832693-133-R-J1-PDC multi-cell spheroids, viability
Experiment: Anticancer human tumor 832693-133-R-J1-PDC patient-derived head and neck squamous carcinoma cell line growth inhibition [IpAb]
Settings: for IC50: curve of first compound; for viability, T/C: stronger effect = lower value
Procedure, shortened: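 Spheroids of 60% malignant cells, 25% HUVEC and 15% MSC were exposed to targeted agents combined with ipatasertib or abemaciclib. Doses started at or near clinical Cmax (10 microM when unknown) and fell in half-log steps.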

[1] = second compound 0.01 µM, first compound 0.00949 µM
[2] = second compound 0.01 µM, first compound 0.03 µM
[3] = second compound 0.01 µM, first compound 0.0949 µM
[4] = second compound 0.01 µM, first compound 0.3 µM
[5] = second compound 0.0316 µM, first compound 0.00949 µM
[6] = second compound 0.0316 µM, first compound 0.03 µM
[7] = second compound 0.0316 µM, first compound 0.0949 µM
[8] = second compound 0.0316 µM, first compound 0.3 µM
[9] = second compound 0.1 µM, first compound 0.00949 µM
[10] = second compound 0.1 µM, first compound 0.03 µM
[11] = second compound 0.1 µM, first compound 0.0949 µM
[12] = second compound 0.1 µM, first compound 0.3 µM
[13] = second compound 0.316 µM, first compound 0.00949 µM
[14] = second compound 0.316 µM, first compound 0.03 µM
[15] = second compound 0.316 µM, first compound 0.0949 µM
[16] = second compound 0.316 µM, first compound 0.3 µM
[17] = second compound 1 µM, first compound 0.00949 µM
[18] = second compound 1 µM, first compound 0.03 µM
[19] = second compound 1 µM, first compound 0.0949 µM
[20] = second compound 1 µM, first compound 0.3 µM
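Further: spheroids exposed to the drugs for one week before the viability readout.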
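Wherever viability, T/C is given: 100% = DMSO vehicle control wells.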

Compound	IC50 (second compound 0.01 µM)	IC50 (second compound 0.0316 µM)	IC50 (second compound 0.1 µM)	IC50 (second compound 0.316 µM)	IC50 (second compound 1 µM)	viability, T/C [1]	viability, T/C [2]	viability, T/C [3]	viability, T/C [4]	viability, T/C [5]	viability, T/C [6]	viability, T/C [7]	viability, T/C [8]	viability, T/C [9]	viability, T/C [10]	viability, T/C [11]	viability, T/C [12]	viability, T/C [13]	viability, T/C [14]	viability, T/C [15]	also measured
CC(=O)c1c(C)c2cnc(Nc3ccc(N4CCNCC4)cn3)nc2n(C2CCCC2)c1=O + CCN1CCN(Cc2ccc(Nc3ncc(F)c(-c4cc(F)c5nc(C)n(C(C)C)c5c4)n3)nc2)CC1	> 300 nM	> 300 nM	> 300 nM	> 300 nM	> 300 nM	75.6%	71.8%	58.4%	60%	71.1%	58.4%	56.7%	54.1%	61.4%	52.4%	54.3%	56%	55.3%	61.4%	55.2%	viability, T/C (second compound 0.01 µM, first compound 0.000949 µM): 101%; viability, T/C (second compound 0.01 µM, first compound 0.003 µM): 83.8%; viability, T/C (second compound 0.0316 µM, first compound 0.000949 µM): 80.1%; viability, T/C (second compound 0.0316 µM, first compound 0.003 µM): 83.4%; viability, T/C (second compound 0.1 µM, first compound 0.000949 µM): 57.1%; viability, T/C (second compound 0.1 µM, first compound 0.003 µM): 62.2%; viability, T/C (second compound 0.316 µM, first compound 0.000949 µM): 54%; viability, T/C (second compound 0.316 µM, first compound 0.003 µM): 53.3%; viability, T/C [16]: 60.4%; viability, T/C (second compound 1 µM, first compound 0.000949 µM): 67.8%; viability, T/C (second compound 1 µM, first compound 0.003 µM): 61%; viability, T/C [17]: 68.3%; viability, T/C [18]: 64.8%; viability, T/C [19]: 65.6%; viability, T/C [20]: 57.2%
CC(C)(C)c1cnc(CSc2cnc(NC(=O)C3CCNCC3)s2)o1 + CCN1CCN(Cc2ccc(Nc3ncc(F)c(-c4cc(F)c5nc(C)n(C(C)C)c5c4)n3)nc2)CC1	577 nM	223 nM	161 nM	149 nM	134 nM	107%	125%	157%	114%	97.8%	112%	133%	27.8%	73.8%	93.5%	104%	6.06%	66.7%	77.5%	100%	viability, T/C (second compound 0.01 µM, first compound 0.949 µM): 0.93%; viability, T/C (second compound 0.01 µM, first compound 3 µM): 1.32%; viability, T/C (second compound 0.0316 µM, first compound 0.949 µM): 0.9%; viability, T/C (second compound 0.0316 µM, first compound 3 µM): 1.39%; viability, T/C (second compound 0.1 µM, first compound 0.949 µM): 0.75%; viability, T/C (second compound 0.1 µM, first compound 3 µM): 1.11%; viability, T/C [16]: 1.34%; viability, T/C (second compound 0.316 µM, first compound 0.949 µM): 1.19%; viability, T/C (second compound 0.316 µM, first compound 3 µM): 1.26%; viability, T/C [17]: 67.9%; viability, T/C [18]: 81.3%; viability, T/C [19]: 70.7%; viability, T/C [20]: 1.74%; viability, T/C (second compound 1 µM, first compound 0.949 µM): 1.59%; viability, T/C (second compound 1 µM, first compound 3 µM): 1.53%

— PubChem BioAssay AID2060337 (Molecular Pharmacology Branch, DTP, NCI, 2025)
